According to patent US20240148900A1, “IMMUNOSTIMULATORY CYCLIC DI-NUCLEOTIDE DELIVERY SYSTEM COMPOSITIONS AND METHOD OF USE THEREOF” (VIRGINIA COMMONWEALTH UNIVERSITY, priority 2021, published 2024):

Columns and labels:
[1] = Stability of CDG in 10% FBS-supplemented cell culture medium; format: in vitro ADME; conditions: 7 days in cell culture medium with 10% serum, 37° C., absorption at 254 nm
Excerpt: FIG. 1A-H. Characterization of STING-NVs. (a) UV-vis absorbance spectra of PEG-b-PLA NPs, 5c-i-motif DNA, and 5c-NPs. […] Lane legends: 1: 25 bp DNA ladder; 2: 9C-i-motif; 3: 3C-NPs; 4: 5C-NPs; 5: 7C-NPs; 6: 9C-NPs. (c) DLS graphs showing the hydrodynamic diameters of 5C-NPs (79±34 nm, PDI 0.157) and STING-NVs (81±32 nm, PDI 0.131). (d) A TEM image of STING-NVs. (e) Zeta potential of blank NPs, CDG-loaded NPs, and Lipo-CDG. STING-NVs: CDG-loaded 5C-NPs. (f) Stability of free CDG and CDG loaded in STING-NVs over 7-day incubation in 10% FBS-supplemented cell culture medium (37° C.). A254nm: 254 nm absorption from CDG; A560nm: 560 nm absorption from medium as an internal reference. (g, h) MST traces (g) and fitting curve (h) of the kinetic interaction between 5C-NPs and CDG at pH 7.4. Data represent mean±standard deviation (SD) (n=3).
The ability of STING-NVs to promote the biostability of CDG is presumably due to the steric hindrance of i-motif-NPs that prevent the access of nucleases. Using HPLC and microscale thermophoresis (MST), we further studied the binding of CDG with 5C-i-motifs, which is the basis for CDG loading into i-motif-modified NPs. In HPLC, relative to free CDG and 5C-i-motif, the delayed elution time of physically mixed CDG and 5C-i-motif indicated the complexation of CDG and 5C-i-motif (FIG. 10). […]

[2] = tested on: RAW264.7 macrophages; assay: Cell uptake of FluoCDG by flow cytometry; format: cell-based, murine; conditions: FluoCDG 0.5 μg/mL; free CDG over 2 h, formulations 0.5 h post incubation
Procedure: CDG release from STING-NVs. First, STING-NVs were dispersed in 1 mL of 1×PBS at different pH and agitated at 200 rpm. Then the mixture was ultra-filtrated at each hour point. The filtrate was taken for CDG detection, and the same volume of fresh buffer was added back to the residual mixture. The amount of released CDG in the filtrate was determined by measuring the absorption at 254 nm using a UV-Vis spectrometer. Lipo-CDG Synthesis. DOTAP, cholesterol, and DSPE-PEG(2000) were purchased from Avanti Polar Lipids. Lipids were mixed at molar ratios of 1:1:0.2 DOTAP:cholesterol:DSPE-PEG(2000). Lipid mixtures were dried under a nitrogen stream in glass test tubes. The resulting lipid films were placed in a desiccation system overnight. […] The CDG content of the liposomes was determined by measuring the absorbance peak of the liposomes at 254 nm, corresponding to the maximum absorbance of CDG, subtracting the lipid contribution to absorbance at this wavelength. […] Secreted IFN-α was quantified with the LumiKine Xpress mIFN-α enzyme-linked immunosorbent assay kit (InvivoGen). Secreted IL-6 and IL-12 were quantified with the Mouse IL-6 Quantikine™ ELISA Kit (R&D Systems). […] Cells were analyzed for fluorescein signal (from fluorescein-modified CDG) on the CytoFLEX LX (Beckman Coulter) flow cytometer.

intact CDG [1]: 2.3%
Compound: Nc1nc2c(ncn2[C@@H]2O[C@@H]3COP(=O)(O)O[C@H]4[C@@H](O)[C@H](n5cnc6c(=O)[nH]c(N)nc65)O[C@@H]4COP(=O)(O)O[C@H]3[C@H]2O)c(=O)[nH]1 [free CDG, cyclic dimeric guanosine monophosphate]
FluoCDG fluorescence signal enhancement [2]: only slight FluoCDG signal enhancement
